Data on four compounds can be found in patent US10487094B1, “Bergenin thiodipropionic acid ester with antioxidant activity and a method of improving the antioxidant property of ganoderma lucidum spore oil using the same” (SHAANXI UNIVERSITY OF SCIENCE AND TECHNOLOGY, priority 2018, dated 2019).

Assay [1] in a line: DPPH radical scavenging activity of sample and control solutions. It is filed as biochemical. The note with it: for Scavenging activity: 0.2 mmol/L DPPH, 30 min, 517 nm, n = 3. The text has this:
In the DPPH molecule, due to the presence of multiple electron-withdrawing —NO2 and large π bonds of the benzene ring, nitrogen free radical is stabilized. Its methanol solution is purple and has a maximum absorption peak at 517 nm. After the addition of an antioxidant, DPPH captures an electron to be paired with the free electron, and the purple fades and turns into a yellow substance. The absorption at 517 nm disappears, and the degree of fading is quantitatively related to the number of electrons it captures. Based on this principle, a spectrophotometer is used to detect the change of the absorbance of the DPPH radical and the sample solution, and the ability of the sample to provide hydrogen atoms and scavenge free radicals can be measured.
Preparation of DPPH Solution: Measuring Exact Amount of 1,1-diphenyl-2-picryl hydrazyl (DPPH) and dissolving in methanol to prepare a 0.2 mmol/L DPPH Solution, Stored at 0° C. in Dark
Preparation of sample solutions: Vitamin C (positive control), bergenin thiodipripionic acid ester (sample), bergenin (control), thiodipropionic acid (control), mixture of bergenin and thiodipropionic acid (control). The sample solution was serially diluted with acetonitrile, and four groups of controls were separately dissolved in a test tube with a certain amount of methanol to prepare the same concentration gradient as the sample. Four corresponding groups of control solutions were prepared in the same way.
2 mL of the sample solution (Table 1: B), 2 mL 0.2 mmol/L DPPH solution was added, the mixture was mixed and reacted at room temperature in dark for 30 minutes, and methanol was then added to adjust final volume. The absorbance Ai was measured at 517 nm. 2 mL control solution and 2 mL methanol were mixed, and the absorbance Aj was measured. 2 mL DPPH solution and 2 mL methanol were mixed, and the absorbance A0 was measured.
2 mL of the control solutions (Table 1: C, D, E), 2 mL 0.2 mmol/L DPPH solution was added, the mixture was mixed and reacted at room temperature in dark for 30 minutes, and methanol was then added to adjust final volume. The absorbance Ai was measured at 517 nm. 2 mL control solution and 2 mL methanol were mixed, and the absorbance Aj was measured. 2 mL DPPH solution and 2 mL methanol were mixed, and the absorbance A0 was measured. The scavenging activity of the sample solution and control solutions is calculated according to the following calculation formula. Scavenging activity (%)=[1−(Ai−Aj)/Ao]*100%
A general note: DPPH is a stable violet radical that fades when it is reduced.

The nature of assay [2]: DPPH radical scavenging activity of Ganoderma lucidum spore oil with and without bergenin thiodipripionic acid ester. The assay is classed as biochemical. To be noted: added at 0.2%, 0.4%, 0.6%.

Turning to `COc1c(O)cc2c(c1O)C1OC(COC(=O)CCSCCC(=O)OCC3OC4c5c(cc(O)c(OC)c5O)C(=O)OC4C(O)C3O)C(O)C(O)C1OC2=O` (centres unmarked) [B, bis((3,4,8,10-tetrahydroxy-9-methoxy-6-oxo-2,3,4,4a,6,10b-hexahydropyrano[3,2-c]isochromen-2-yl)methyl) 3,3′-thiodipropionate], the Scavenging activity in assay [1] (0.04 mg/ml) is 28.01%; in assay [1] (0.08 mg/ml) it was 37.78%; in assay [1] (0.16 mg/ml), 51.33%; in assay [1] (0.83 mg/ml), 60.22%; in assay [1] (1.66 mg/ml), 76.33%; in assay [1] (8.28 mg/ml) it was 82.56%. Besides, the Scavenging activity in assay [1] (16.56 mg/ml) is 95.67%; in assay [1] (24.84 mg/ml), 96.22%; in assay [1] (33.12 mg/ml), 96.22%. Besides, the “scavenging ability compared with bergenin (C), thiodipropionic acid (D) and their 2:1 mixture (E)” value in assay [1] (at the same concentration) is recorded as “significantly better”. For the same compound, the “effect on antioxidant capacity of Ganoderma lucidum spore oil” value in assay [2] is given as “improves the antioxidant capacity of Ganoderma lucidum spore oil”.
For the compound `COc1c(O)cc2c(c1O)[C@@H]1O[C@H](CO)[C@@H](O)[C@H](O)[C@H]1OC2=O` [C, Bergenin], the Scavenging activity is 8.63% in assay [1] (0.04 mg/ml); 12.25% in assay [1] (0.08 mg/ml); 19.80% in assay [1] (0.16 mg/ml); 25.59% in assay [1] (0.83 mg/ml); 41.86% in assay [1] (1.66 mg/ml); 59.12% in assay [1] (8.28 mg/ml). Further, the Scavenging activity is recorded as 94.78% in assay [1] (16.56 mg/ml), 94.87% in assay [1] (24.84 mg/ml) and 95.18% in assay [1] (33.12 mg/ml).
With `O=C(O)CCSCCC(=O)O` [D, Thiodipropionic acid], the Scavenging activity in assay [1] (0.04 mg/ml) turned out to be 1.96%; in assay [1] (0.08 mg/ml) it was 8.73%; in assay [1] (0.16 mg/ml), 9.07%; in assay [1] (0.83 mg/ml), 9.18%; in assay [1] (1.66 mg/ml) it was 9.41%; in assay [1] (8.28 mg/ml) it was 10.56%. The Scavenging activity in assay [1] (16.56 mg/ml) was determined as 11.83%; in assay [1] (24.84 mg/ml), 13.09%; in assay [1] (33.12 mg/ml), 14.47%.
Consider `O=C1O[C@H]([C@@H](O)CO)C(O)=C1O` [Vc, Vitamin C], for which the Scavenging activity in assay [1] (0.04 mg/ml) came out at 94.90%; in assay [1] (0.08 mg/ml), 94.90%; in assay [1] (0.16 mg/ml), 95.03%; in assay [1] (0.83 mg/ml) it was 95.03%; in assay [1] (1.66 mg/ml), 98.67%; in assay [1] (8.28 mg/ml) it was 98.92%. Also, the Scavenging activity in assay [1] (16.56 mg/ml), in assay [1] (24.84 mg/ml) and in assay [1] (33.12 mg/ml) was 99.00% in each case.
